Patent publication US20100136024A1, “Selective Inhibition of Histone Deacetylase 6 for Ocular Neuroprotection or for Treatment or Control of Glaucoma” (priority 2008, published 2010)
Like-named read-outs stand apart in the source and are kept apart here.

What was measured:
HDAC6 [1] = target: T1, HDAC6 (Homo sapiens, UniProt Q9UBN7); assay: HDAC6 inhibition and selectivity, '853 Patent; assay type: biochemical; conditions: worked out from the IC50 of '853 Patent FIG. 3
T1 sequence (Q9UBN7 1-1215): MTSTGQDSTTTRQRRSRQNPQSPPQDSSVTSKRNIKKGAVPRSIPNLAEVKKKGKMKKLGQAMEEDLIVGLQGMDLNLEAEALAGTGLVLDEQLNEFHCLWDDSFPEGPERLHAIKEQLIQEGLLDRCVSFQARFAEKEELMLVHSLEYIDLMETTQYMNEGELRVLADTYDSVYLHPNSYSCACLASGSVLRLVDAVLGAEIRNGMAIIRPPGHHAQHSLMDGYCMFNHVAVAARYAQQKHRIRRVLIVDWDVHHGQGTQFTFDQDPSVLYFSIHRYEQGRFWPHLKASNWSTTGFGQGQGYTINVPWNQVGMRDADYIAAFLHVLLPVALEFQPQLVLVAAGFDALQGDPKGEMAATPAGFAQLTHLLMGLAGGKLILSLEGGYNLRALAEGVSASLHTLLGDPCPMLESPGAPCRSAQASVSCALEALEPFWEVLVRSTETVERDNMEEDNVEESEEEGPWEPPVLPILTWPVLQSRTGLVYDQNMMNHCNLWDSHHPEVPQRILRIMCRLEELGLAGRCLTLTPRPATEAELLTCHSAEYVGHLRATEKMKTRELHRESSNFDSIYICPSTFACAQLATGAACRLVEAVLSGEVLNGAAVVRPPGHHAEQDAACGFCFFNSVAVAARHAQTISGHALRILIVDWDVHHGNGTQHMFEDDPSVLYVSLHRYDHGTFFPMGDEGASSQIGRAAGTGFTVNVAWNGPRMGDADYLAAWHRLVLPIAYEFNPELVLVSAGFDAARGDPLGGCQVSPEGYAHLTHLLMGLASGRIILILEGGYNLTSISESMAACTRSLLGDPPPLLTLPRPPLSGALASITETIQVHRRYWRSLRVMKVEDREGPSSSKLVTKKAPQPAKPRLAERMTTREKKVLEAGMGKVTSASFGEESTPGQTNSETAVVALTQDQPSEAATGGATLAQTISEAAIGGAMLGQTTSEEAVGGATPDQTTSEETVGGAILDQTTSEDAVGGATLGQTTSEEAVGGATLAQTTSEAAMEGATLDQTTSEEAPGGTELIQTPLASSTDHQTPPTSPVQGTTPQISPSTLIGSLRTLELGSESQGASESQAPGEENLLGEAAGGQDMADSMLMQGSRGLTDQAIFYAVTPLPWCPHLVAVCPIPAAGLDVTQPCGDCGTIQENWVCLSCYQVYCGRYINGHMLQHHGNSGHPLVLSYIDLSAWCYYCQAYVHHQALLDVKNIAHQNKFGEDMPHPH
Description: Id., col. 114, lines 64-65. […] Id., col. 115, lines 37-38. […] Id., col. 137.
The '853 Patent provides, in its FIG. 3, the following data regarding the HDAC6 selective activity of compound 10, in comparison with other preferred but non-selective inhibitors of HDAC1 and HDAC6, i.e., compounds 8 and 9: […]

HDAC1 = HDAC1 (Homo sapiens, UniProt Q13547); conditions: '853 Patent FIG. 3; read-out: Inhibiting Concentration IC50 for HDAC1; cited from earlier work
Chain of HDAC1 (Q13547 whole entry, species assumed): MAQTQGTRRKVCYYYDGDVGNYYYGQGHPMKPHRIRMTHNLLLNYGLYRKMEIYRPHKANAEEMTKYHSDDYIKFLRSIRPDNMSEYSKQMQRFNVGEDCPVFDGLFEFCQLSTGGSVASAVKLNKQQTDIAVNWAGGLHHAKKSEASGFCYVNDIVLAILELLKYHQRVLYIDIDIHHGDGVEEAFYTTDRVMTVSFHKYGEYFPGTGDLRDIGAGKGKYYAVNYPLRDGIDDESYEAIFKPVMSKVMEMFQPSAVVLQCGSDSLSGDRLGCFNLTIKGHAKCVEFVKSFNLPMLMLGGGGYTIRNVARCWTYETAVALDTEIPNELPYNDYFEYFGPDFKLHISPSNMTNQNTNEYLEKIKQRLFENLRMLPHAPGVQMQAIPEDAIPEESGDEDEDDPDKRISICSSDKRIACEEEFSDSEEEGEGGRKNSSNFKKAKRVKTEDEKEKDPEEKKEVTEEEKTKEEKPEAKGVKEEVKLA

HDAC6 [2] = target: T1, HDAC6; conditions: '853 Patent FIG. 3; read-out: Inhibiting Concentration IC50 for HDAC6; cited from earlier work
HDAC6 [3] = target: T1, HDAC6; conditions: Itoh et al. enzyme assay; cited from earlier work
A549 cells = conditions: cited from earlier work
[4] = system: histone acetylation, gene-expression patterns, cell-cycle progression; conditions: Haggarty et al.; cited from earlier work
[5] = system: HDAC6-mediated α-tubulin deacetylation; conditions: Haggarty et al.; cited from earlier work

Structure (SMILES)	IC50 (HDAC6 [3]) [µM]	selectivity HDAC1/HDAC6 (HDAC1 IC50/HDAC6 IC50) (HDAC6 [3])	selectivity HDAC4/HDAC6 (HDAC4 IC50/HDAC6 IC50) (HDAC6 [3])	other results
O=C(CCCC(=O)NCc1ccccc1)NO [Compound 10]				times more selective for HDAC6 than HDAC1 (HDAC6 [1]): about four; IC50 (HDAC1): 1.5 ± 0.5 µM; IC50 (HDAC6 [2]): 0.38 ± 0.04 µM
CC(C)(C)OC(=O)N[C@@H](CCCCCS)C(=O)Nc1cccc(-c2ccccc2)c1 [Compound 13a]	0.054	1.6	1.0	
CC(C)(C)OC(=O)N[C@@H](CCCCCS)C(=O)Nc1cnc2ccccc2c1 [Compound 15a]	0.032	1.6	1.0	
CC(C)(C)OC(=O)N[C@@H](CCCCCS)C(=O)NC1CCCC1 [Compound 16a, (S)-tert-butyl 1-(cyclopentylamino)-7-mercapto-1-oxoheptan-2-ylcarbamate]		42	36	
CC(C)(C)OC(=O)N[C@@H](CCCCCS)C(=O)NC1CCCCC1 [Compound 17a, (S)-tert-butyl 1-(cyclohexylamino)-7-mercapto-1-oxoheptan-2-ylcarbamate]		35	32	
CC(C)(C)OC(=O)N[C@@H](CCCCCS)C(=O)NC1CCCCCC1 [Compound 18a, (S)-tert-butyl 1-(cycloheptylamino)-7-mercapto-1-oxoheptan-2-ylcarbamate]		39	37	
CC(C)(C)NC(=O)[C@H](CCCCCS)NC(=O)OC(C)(C)C [Compound 19a, (S)-tert-butyl 1-(tert-butylamino)-7-mercapto-1-oxoheptan-2-ylcarbamate]	0.071	42	26	
CC(C)(C)OC(=O)N[C@@H](CCCCCS)C(=O)NC12CC3CC(CC(C3)C1)C2 [Compound 20a, (S)-tert-butyl 1-(adamant-1-ylamino)-7-mercapto-1-oxoheptan-2-ylcarbamate]	0.082	46	51	
O=C(CCCCCCC(=O)Nc1ccc([C@H]2O[C@@H](CSc3nc(-c4ccccc4)c(-c4ccccc4)o3)C[C@@H](c3ccc(CO)cc3)O2)cc1)NO [tubacin]				effect on histone (lysine) acetylation (A549 cells): no effect; concentration at which α-tubulin activity (acetylation) is increased (A549 cells; concentrations as low as): ≤ 125 nM; effect on level of histone acetylation, gene-expression patterns, or cell-cycle progression [4]: does not affect; inhibition of α-tubulin deacetylation [5]: selective and reversible inhibitor
